Results from the supplement of paper PMC13207355.
Structures can show the parent of a compound that is named as a salt.

What was measured:
Details in all cases: exposure time: 72 h
E28 [1] = patient-derived glioblastoma stem cells of classical subtype; assay: surviving fraction (nuclei count normalised to DMSO); higher = more cells surviving (less toxic)
FT3469 [2] = normal neural stem cell line; assay: as above
E34 [3] = patient-derived glioblastoma stem cells of proneural subtype; assay: as above
E13 [4] = patient-derived glioblastoma stem cells of classical subtype; assay: as above
E21 [5] = patient-derived glioblastoma stem cells of mesenchymal subtype; assay: as above
E57 [6] = patient-derived glioblastoma stem cells of mesenchymal subtype; assay: as above
E31 [7] = patient-derived glioblastoma stem cells of proneural subtype; assay: as above
E28 [8] = assay: phenotypic distance (Euclidean, principal components) from DMSO controls (arbitrary units); higher = stronger morphological change
FT3469 [9] = assay: as above
E34 [10] = assay: as above
E13 [11] = assay: as above
E21 [12] = assay: as above
E57 [13] = assay: as above
E31 [14] = assay: as above
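Wherever phenotypic distance (Euclidean, principal components) from DMSO controls is given: cell Painting imaging in 384-well plates, CellProfiler features reduced to at least 20 principal components, Euclidean distance versus same-plate DMSO vehicle wells (0.1% v/v), median over six images per well.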
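Wherever surviving fraction (nuclei count normalised to DMSO) is given: nuclei counted by high-content imaging of Hoechst-stained cells in laminin-coated 384-well plates, relative to 0.1% DMSO vehicle wells, with staurosporine as cell-death control.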

O=c1c2ccccc2[se]n1-c1ccccc1 [Ebselen]
Details | phenotypic distance | surviving fraction
E13 [4], 4.11523 nM | – | 1.18
E13 [4], 12.34567901 nM | – | 1.04
E13 [4], 37.037 nM | – | 1.05
E13 [4], 111.1111111 nM | – | 1.07
E13 [4], 333.333 nM | – | 1.16
E13 [4], 1000 nM | – | 1.11
E13 [4], 3000 nM | – | 0.579
E13 [11], 4.11523 nM | 0.891 | –
E13 [11], 12.34567901 nM | 0.779 | –
E13 [11], 37.037 nM | 0.477 | –
E13 [11], 111.1111111 nM | 0.532 | –
E13 [11], 333.333 nM | 0.51 | –
E13 [11], 1000 nM | 0.854 | –
E13 [11], 3000 nM | 1.59 | –
E21 [5], 4.11523 nM | – | 1.06
E21 [5], 12.34567901 nM | – | 1.15
E21 [5], 37.037 nM | – | 1.11
E21 [5], 111.1111111 nM | – | 1.08
E21 [5], 333.333 nM | – | 1.1
E21 [5], 1000 nM | – | 1.14
E21 [5], 3000 nM | – | 0.582
E21 [12], 4.11523 nM | 0.63 | –
E21 [12], 12.34567901 nM | 1.29 | –
E21 [12], 37.037 nM | 0.667 | –
E21 [12], 111.1111111 nM | 1.02 | –
E21 [12], 333.333 nM | 0.791 | –
E21 [12], 1000 nM | 0.556 | –
E21 [12], 3000 nM | 1.89 | –
E28 [1], 4.11523 nM | – | 0.974
E28 [1], 12.34567901 nM | – | 1.18
E28 [1], 37.037 nM | – | 1.14
E28 [1], 111.1111111 nM | – | 1.12
E28 [1], 333.333 nM | – | 1.15
E28 [1], 1000 nM | – | 1.1
E28 [1], 3000 nM | – | 0.0788
E28 [8], 4.11523 nM | 0.754 | –
E28 [8], 12.34567901 nM | 1.01 | –
E28 [8], 37.037 nM | 0.601 | –
E28 [8], 111.1111111 nM | 0.529 | –
E28 [8], 333.333 nM | 0.764 | –
E28 [8], 1000 nM | 0.79 | –
E28 [8], 3000 nM | 2.56 | –
E31 [7], 4.11523 nM | – | 0.993
E31 [7], 12.34567901 nM | – | 0.922
E31 [7], 37.037 nM | – | 1.2
E31 [7], 111.1111111 nM | – | 1.12
E31 [7], 333.333 nM | – | 1.13
E31 [7], 1000 nM | – | 0.905
E31 [7], 3000 nM | – | 0.127
E31 [14], 4.11523 nM | 0.71 | –
E31 [14], 12.34567901 nM | 0.778 | –
E31 [14], 37.037 nM | 0.875 | –
E31 [14], 111.1111111 nM | 0.398 | –
E31 [14], 333.333 nM | 0.33 | –
E31 [14], 1000 nM | 0.763 | –
E31 [14], 3000 nM | 3.3 | –
E34 [3], 4.11523 nM | – | 0.901
E34 [3], 12.34567901 nM | – | 1.1
E34 [3], 37.037 nM | – | 0.955
E34 [3], 111.1111111 nM | – | 1
E34 [3], 333.333 nM | – | 1.04
E34 [3], 1000 nM | – | 1.05
E34 [3], 3000 nM | – | 0.512
E34 [10], 4.11523 nM | 0.415 | –
E34 [10], 12.34567901 nM | 0.549 | –
E34 [10], 37.037 nM | 0.806 | –
E34 [10], 111.1111111 nM | 0.859 | –
E34 [10], 333.333 nM | 0.532 | –
E34 [10], 1000 nM | 1.03 | –
E34 [10], 3000 nM | 1.91 | –
E57 [6], 4.11523 nM | – | 1.04
E57 [6], 12.34567901 nM | – | 0.962
E57 [6], 37.037 nM | – | 1.01
E57 [6], 111.1111111 nM | – | 1.05
E57 [6], 333.333 nM | – | 0.995
E57 [6], 1000 nM | – | 1.04
E57 [6], 3000 nM | – | 0.343
E57 [13], 4.11523 nM | 0.316 | –
E57 [13], 12.34567901 nM | 0.564 | –
E57 [13], 37.037 nM | 0.5 | –
E57 [13], 111.1111111 nM | 0.407 | –
E57 [13], 333.333 nM | 0.482 | –
E57 [13], 1000 nM | 1 | –
E57 [13], 3000 nM | 4.42 | –
FT3469 [2], 4.11523 nM | – | 1.14
FT3469 [2], 12.34567901 nM | – | 1.14
FT3469 [2], 37.037 nM | – | 1.11
FT3469 [2], 111.1111111 nM | – | 1.15
FT3469 [2], 333.333 nM | – | 1.32
FT3469 [2], 1000 nM | – | 0.997
FT3469 [2], 3000 nM | – | 0.189
FT3469 [9], 4.11523 nM | 0.678 | –
FT3469 [9], 12.34567901 nM | 0.843 | –
FT3469 [9], 37.037 nM | 0.785 | –
FT3469 [9], 111.1111111 nM | 0.587 | –
FT3469 [9], 333.333 nM | 1.06 | –
FT3469 [9], 1000 nM | 0.639 | –
FT3469 [9], 3000 nM | 4.47 | –

CCC(C)(C)c1ccc(CC(C)CN2C[C@@H](C)O[C@@H](C)C2)cc1 (stereo partly specified) [Amorolfine hydrochloride]
Details | phenotypic distance | surviving fraction
E13 [4], 4.1 nM | – | 0.95
E13 [4], 12.3 nM | – | 0.95
E13 [4], 37 nM | – | 1
E13 [4], 111.1 nM | – | 0.97
E13 [4], 333.3 nM | – | 0.959
E13 [4], 1000 nM | – | 0.957
E13 [4], 3000 nM | – | 0.638
E13 [11], 4.1 nM | 0.768 | –
E13 [11], 12.3 nM | 0.554 | –
E13 [11], 37 nM | 0.708 | –
E13 [11], 111.1 nM | 0.428 | –
E13 [11], 333.3 nM | 0.915 | –
E13 [11], 1000 nM | 1.17 | –
E13 [11], 3000 nM | 3.08 | –
E21 [5], 4.1 nM | – | 0.94
E21 [5], 12.3 nM | – | 1.02
E21 [5], 37 nM | – | 0.982
E21 [5], 111.1 nM | – | 1.09
E21 [5], 333.3 nM | – | 1.03
E21 [5], 1000 nM | – | 1.07
E21 [5], 3000 nM | – | 0.816
E21 [12], 4.1 nM | 0.885 | –
E21 [12], 12.3 nM | 0.483 | –
E21 [12], 37 nM | 0.732 | –
E21 [12], 111.1 nM | 0.989 | –
E21 [12], 333.3 nM | 1.11 | –
E21 [12], 1000 nM | 1.17 | –
E21 [12], 3000 nM | 1.97 | –
E28 [1], 4.1 nM | – | 1.09
E28 [1], 12.3 nM | – | 0.852
E28 [1], 37 nM | – | 1.21
E28 [1], 111.1 nM | – | 0.914
E28 [1], 333.3 nM | – | 1.17
E28 [1], 1000 nM | – | 0.839
E28 [1], 3000 nM | – | 0.777
E28 [8], 4.1 nM | 0.829 | –
E28 [8], 12.3 nM | 0.874 | –
E28 [8], 37 nM | 0.838 | –
E28 [8], 111.1 nM | 0.682 | –
E28 [8], 333.3 nM | 0.846 | –
E28 [8], 1000 nM | 0.746 | –
E28 [8], 3000 nM | 1.38 | –
E31 [7], 4.1 nM | – | 0.939
E31 [7], 12.3 nM | – | 0.934
E31 [7], 37 nM | – | 0.967
E31 [7], 111.1 nM | – | 0.983
E31 [7], 333.3 nM | – | 1.05
E31 [7], 1000 nM | – | 0.996
E31 [7], 3000 nM | – | 0.804
E31 [14], 4.1 nM | 0.639 | –
E31 [14], 12.3 nM | 0.653 | –
E31 [14], 37 nM | 0.833 | –
E31 [14], 111.1 nM | 0.88 | –
E31 [14], 333.3 nM | 0.504 | –
E31 [14], 1000 nM | 1.35 | –
E31 [14], 3000 nM | 2.01 | –
E34 [3], 4.1 nM | – | 0.983
E34 [3], 12.3 nM | – | 1.06
E34 [3], 37 nM | – | 0.937
E34 [3], 111.1 nM | – | 1.06
E34 [3], 333.3 nM | – | 1.09
E34 [3], 1000 nM | – | 1.14
E34 [3], 3000 nM | – | 0.815
E34 [10], 4.1 nM | 0.551 | –
E34 [10], 12.3 nM | 1.11 | –
E34 [10], 37 nM | 1.1 | –
E34 [10], 111.1 nM | 1.17 | –
E34 [10], 333.3 nM | 0.856 | –
E34 [10], 1000 nM | 0.796 | –
E34 [10], 3000 nM | 1.7 | –
E57 [6], 4.1 nM | – | 1
E57 [6], 12.3 nM | – | 0.954
E57 [6], 37 nM | – | 1.05
E57 [6], 111.1 nM | – | 1.02
E57 [6], 333.3 nM | – | 0.957
E57 [6], 1000 nM | – | 0.983
E57 [6], 3000 nM | – | 1.02
E57 [13], 4.1 nM | 0.935 | –
E57 [13], 12.3 nM | 0.283 | –
E57 [13], 37 nM | 0.726 | –
E57 [13], 111.1 nM | 0.552 | –
E57 [13], 333.3 nM | 0.896 | –
E57 [13], 1000 nM | 1.08 | –
E57 [13], 3000 nM | 2.02 | –
FT3469 [2], 4.1 nM | – | 1.01
FT3469 [2], 12.3 nM | – | 0.924
FT3469 [2], 37 nM | – | 1.24
FT3469 [2], 111.1 nM | – | 1.1
FT3469 [2], 333.3 nM | – | 1.02
FT3469 [2], 1000 nM | – | 0.973
FT3469 [2], 3000 nM | – | 1.02
FT3469 [9], 4.1 nM | 1.11 | –
FT3469 [9], 12.3 nM | 0.614 | –
FT3469 [9], 37 nM | 1.09 | –
FT3469 [9], 111.1 nM | 0.588 | –
FT3469 [9], 333.3 nM | 0.893 | –
FT3469 [9], 1000 nM | 0.525 | –
FT3469 [9], 3000 nM | 1.13 | –
